According to patent publication US20260069606A1, “Oxidative Stress and Diabetes Treatment with Cobinamide” (The Regents of the University of California, priority 2022, published 2026):

What was measured:
[1] = Reaction with superoxide, hypoxanthine-xanthine oxidase-cytochrome c reduction system; format: biochemical; conditions: for Apparent rate constant, reaction with superoxide (O2·^−): second order, hypoxanthine-xanthine oxidase-cytochrome c system, new data of this study
Procedure: FIGS. 1A-1G. Cobinamide Functions as a Superoxide Dismutase Mimetic. FIGS. 1A-1B. Chemical structures of aquohydroxo-cobinamide (FIG. 1A) and hydroxo-cobalamin (FIG. 1B). FIGS. 1C, 1E. Increasing concentrations of Chi(III) (FIG. 1C) or Chi(II) (FIG. 1E) were incubated in a hypoxanthine-xanthine oxidase-cytochrome c-catalase system for measuring O2·^−, with the change in absorbance at 550 nm (ΔAbs) plotted versus time. A no substrate (no hypoxanthine) control was included. FIGS. 1D, 1F. The calculated rate of change of absorbance at 550 nm in the absence of Chi(III) or Chi(II) (Vo) divided by the calculated rate in their presence (v) is plotted against the Chi(III) (FIG. 1D) or Chi(II) (FIG. 1F) concentration, respectively. The slope of the fitted line was used to calculate the apparent rate constant according to the following equation: kCbi=slope×kcytochrome c×[cytochrome c], where kcytochrome c=1.4×10^6 M^−1 s^−1 and [cytochrome c]=70 μM^70. The data shown are the mean of duplicate samples from one experiment, with similar results found in two additional experiments. Dotted lines show 95% confidence intervals. FIG. 1G. A 20 μM solution of Chi(III) in DMSO was scanned from 280 to 600 nm yielding the spectrum shown as a black line. An equimolar amount of […] (KO2) dissolved in dimethyl sulfoxide (DMSO) was added and the solution was scanned immediately, yielding the grey line. […] The experiment was conducted three times with identical results.
Table I. Reaction Rates of Cobinamide (Cbi), Cobalamin, Imisopasem, and MnTBAP with Reactive Oxygen and Nitrogen Species. Reactions of the indicated compounds with O2·^−, ONOO^−, and ·NO are all second order reactions with rate constants in units of M^−1 s^−1. The reactions of Cbi(III) and Cbi(II) with H2O2 are third order with rate constant units of M^−2 s^−1. Chi(II) and cobalamin(II) bind nitric oxide, so a Ka is shown in units of M^−1. For the new data presented in this study, rate constants were measured for O2·^− using a hypoxanthine-xanthine oxidase-cytochrome c system, for H2O2 using a H2O2-specific sensor (World Precision Instruments), and for ONOO^− using a stopped-flow instrument. Published rate constants for Cu/Zn and Mn superoxide dismutases (SOD) and catalase are shown for reference.^a,b Letters and numbers in parenthesis refer to footnotes and references, respectively.
The reaction of cobinamide with O2·^− was studied in two different systems, generating O2·^− using a hypoxanthine-xanthine oxidase system.
The first system contained 100 μM hypoxanthine and 0.1 unit xanthine oxidase in 20 mM sodium phosphate buffer, pH 7.1. The amount of O2·^− was measured by following reduction of ferric-cytochrome c (70 μM) at 550 nm as described previously^65. Catalase was included (32 units per sample), because xanthine oxidase generates both O2·^− and H2O2, and the latter can re-oxidize the ferro-cytochrome c product^34,66. The reaction was followed for 10 min. A no substrate blank lacking hypoxanthine was included.
In both systems, the experiments were conducted in the absence and presence of the indicated concentrations of Cbi(III) or Chi(II) 65.
Catalase was included in the reaction mixture, because the hypoxanthine-xanthine oxidase system also generates H2O2 and the latter can oxidize the ferro-cytochrome c product back to ferric-cytochrome c, thereby interfering with the kinetic measurement^34.

hearts of diabetic mice = assay: Cardiac fibrosis (collagen deposition, Mallory trichrome) in diabetic mice; format: in vivo; conditions: three months histidyl-cobinamide in drinking water
Procedure: FIGS. 4A-4K. Cobinamide Rescues Flies from Paraquat Poisoning and Prevents Abnormal Lipid and Protein Oxidation, DNA Damage, and Fibrosis in the Hearts of Diabetic Mice. FIG. 4A. At time zero, 10 fruit flies (D. melanogaster) were transferred to vials with food to which either phosphate-buffered saline (PBS), 0.8 mM of the indicated drugs, 20 mM paraquat (PQ), or 20 mM paraquat with 0.8 mM of the indicated drugs had been added. The number of live flies was counted each day for 7 d. The experiment was repeated seven times, for a total of 70 flies per condition. The percent surviving flies was calculated; error bars represent standard deviations and are shown in one direction only for sake of clarity. FIGS. 4B-4K. […] The amount of 8-isoprostane (FIG. 4B) was measured by ELISA, protein oxidation (FIGS. 4C-4D) was assessed by immunoblotting, and nitrotyrosine content (FIGS. 4E-4F) was assessed by immunohistochemistry. DNA damage was assessed by 8-OH-deoxyguanosine staining (FIGS. 4G-4H) and a long amplicon qPCR-based assay (FIG. 4I). Cardiac fibrosis (FIGS. 4J-4K) was assessed by Mallory trichrome staining, which stains collagen blue. […] For Panels C, D, and I, frozen heart samples were selected randomly from each of the four groups and were analyzed. For Panel D, blots were analyzed by densitometric scanning using Li-Cor Odyssey software, with the density of each lane normalized to the actin band. […]

[2] = Plasma cobinamide concentration in mice given cobinamide in drinking water; conditions: discussion summary
Procedure: Male C57BL/6NHsd mice (20 weeks old) were housed three to four animals per cage in a temperature-controlled environment with a 12-h light/dark cycle and fed standard rodent chow with ad libitum access to food and water. After one week of acclimatization, mice weighing 30±3 g were injected intraperitoneally for five consecutive days with either saline (n=20) or 50 mg/kg streptozotocin (n=20) 69. […] The 16 diabetic mice and a corresponding number of the saline-injected, non-diabetic mice were split randomly in half to receive either plain drinking water or histidyl-cobinamide in the drinking water. The four groups of animals are referred to as: diabetic vehicle (D-Veh); diabetic, cobinamide-treated (D-Cbi); non-diabetic, vehicle (ND-Veh); and non-diabetic, cobinamide-treated (ND-Cbi). The histidyl-cobinamide concentration was 1 mM for the ND-Cbi mice, but because the diabetic mice drank more than the non-diabetic mice, the cobinamide concentration for the D-Cbi mice was decreased accordingly. The water was replenished twice a week.
After three months of treatment, the mice were weighed, fasted for 6 h, and then underwent an intraperitoneal glucose tolerance test (IPGTT) using 2 g/kg of a 20% glucose solution. Blood glucose concentrations were measured just before the glucose injection (time 0, fasting specimen) and at 15, 30, 60, and 120 min following the injection. […] Two days later, the mice were euthanized by inducing deep anesthesia with 200 mg/kg ketamine and 40 mg/kg xylazine administered by intraperitoneal injection, followed by exsanguination via an open cardiac puncture.
Type I diabetic mice were generated using streptozotocin, and then provided cobinamide in the drinking water for three months.

## C/C1=C2/[N-][C@H]([C@H](CC(N)=O)[C@@]2(C)CCC(=O)NC[C@@H](C)O)[C@]2(C)N=C(/C(C)=C3N=C(/C=C4N=C1[C@@H](CCC(N)=O)C\4(C)C)[C@@H](CCC(N)=O)[C@]\3(C)CC(N)=O)[C@@H](CCC(N)=O)[C@]2(C)CC(N)=O.[Co+3] [cobinamide, aquohydroxo-cobinamide]
[1]; hypoxanthine-xanthine oxidase-cytochrome c reduction system, catalase included, exponent shared in the sentence
  Apparent rate constants, reaction with O2·^−: 1.12e+08 M⁻¹ s⁻¹
[1]; listed as Cbi(III)
  Apparent rate constant, reaction with superoxide (O2·^−): 1.1e+08 M⁻¹ s⁻¹
[1]; listed as Chi(III)
  Apparent rate constant, reaction with superoxide (O2·^−): 1.12e+08 M⁻¹ s⁻¹
Hearts of diabetic mice
  Collagen content in hearts of diabetic mice: reduced collagen content in the hearts of the diabetic mice essentially to that of non-diabetic mice
[2]
  Concentration in the plasma of mice that received cobinamide in drinking water: 100 to 500 nM
